The record followed here is patent publication US9249104B2, “Pyrazole indanyl carboxamides” (BAYER CROPSCIENCE AG, priority 2012, dated 2016).

Structures are written as SMILES.

One data set relates to Puccinia recondita. Description: In vivo preventive test on Puccinia recondita (brown rust on wheat). The conditions noted are these: 500 ppm, wheat plants sprayed 24 h before contamination, graded 12 days after contamination. The procedure:
Wheat plants (“Scipion” variety), sown in starter cups on a 50/50 peat soil-pozzolana substrate and grown at 22° C., are treated at the 1-leaf stage (10 cm height) by spraying with the active ingredient prepared as described above. Plants, used as controls, are treated with the mixture of acetone/tween/DMSO/water not containing the active material. After 24 hours, the plants are contaminated by spraying the leaves with an aqueous suspension of Puccinia recondita spores (100 000 spores per ml). The spores are collected from an infected plant and are suspended in water to containing 2.5 ml/l of Tween 80 at 10%. […] Grading (% of efficacy) is carried out 12 days after the contamination, in comparison with the control plants.

The next data set deals with Septoria tritici. Description: In vivo preventive test on Septoria tritici (leaf spot on wheat). Particulars: 500 ppm, wheat plants sprayed 24 h before contamination, graded 24 days after contamination. The procedure: Wheat plants (“Scipion” variety), sown in starter cups on a 50/50 peat soil-pozzolana substrate and grown at 22° C., are treated at the 1-leaf stage (10 cm height) by spraying with the active ingredient prepared as described above. Plants, used as controls, are treated with the mixture of acetone/tween/DMSO/water not containing the active material. After 24 hours, the plants are contaminated by spraying the leaves with an aqueous suspension of cryopreserved Septoria tritici spores (500 000 spores per ml). The contaminated wheat plants are incubated for 72 hours at 18° C. and at 100% relative humidity, and then for 21 days at 90% relative humidity. Grading (% of efficacy) is carried out 24 days after the contamination, in comparison with the control plants.

The next data set deals with Uromyces appendiculatus. Description: In vivo preventive test on Uromyces appendiculatus (bean rust). The conditions noted are these: preventive, bean plants, dose of 500 ppm, grading 11 days after contamination. The protocol:
Bean plants (“Saxa” variety), sown in starter cups on a 50/50 peat soil-pozzolana substrate and grown at 24° C., are treated at the 2-leaf stage (9 cm height) by spraying with the active ingredient prepared as described above. Plants, used as controls, are treated with the mixture of acetone/tween/DMSO/water not containing the active material. After 24 hours, the plants are contaminated by spraying the leaves with an aqueous suspension of Uromyces appendiculatus spores (150 000 spores per ml). The spores are collected from infected plants and are suspended in water containing 2.5 ml/1 of Tween 80 at 10%. […] Grading (% of efficacy) is carried out 11 days after the contamination, in comparison with the control plants.

Data set [1] has as its system Fusarium nivale (var. majus). Description: In vivo Fusarium nivale (var. majus) test (wheat)/preventive. The conditions noted are these: 500 ppm, wheat plants, preventive, evaluated 5 days after inoculation. The procedure: • Solvent: 49 parts by weight of N,N-dimethylacetamide • Emulsifier: 1 part by weight of alkylaryl polyglycol ether To produce a suitable preparation of active compound, 1 part by weight of active compound or active compound combination is mixed with the stated amounts of solvent and emulsifier, and the concentrate is diluted with water to the desired concentration. To test for preventive activity, young plants are sprayed with the preparation of active compound or active compound combination at the stated rate of application. After the spray coating has been dried, the plants are slightly injured by using a sandblast and afterwards they are sprayed with a conidia suspension of Fusarium nivale (var. majus). The plants are placed in the greenhouse under a translucent incubation cabinet at a temperature of approximately 10° C. and a relative atmospheric humidity of approximately 100%.

The subject of a further data set is Alternaria brassicae. Description: In vivo preventive test on Alternaria brassicae (leaf spot on radish). The conditions noted are these: 500 ppm, radish plants sprayed 24 h before contamination, graded 6 days after contamination. The procedure: Radish plants (“Pernod Clair” variety), sown in starter cups on a 50/50 peat soil-pozzolana substrate and grown at 17° C., are treated at the cotyledon stage by spraying with the active ingredient prepared as described above. Plants, used as controls, are treated with the mixture of acetone/tween/DMSO/water not containing the active material. After 24 hours, the plants are contaminated by spraying the cotyledons with an aqueous suspension of Alternaria brassicae spores (50 000 spores per ml). The spores are collected from a 15-day-old culture. The contaminated radish plants are incubated at 20° C. and at 100% relative humidity. Grading (% of efficacy) is carried out 6 days after the contamination, in comparison with the control plants.

For another data set, the system named is Botrytis cinerea. Description: In vivo preventive test on Botrytis cinerea (grey mould). Particulars: 500 ppm, gherkin plants sprayed 24 h before contamination, graded 4 to 5 days after contamination. The protocol: Gherkin plants (“Vert petit de Paris” variety), sown in starter cups on a 50/50 peat soil-pozzolana substrate and grown at 24° C., are treated at the Z11 cotyledon stage by spraying with the active ingredient prepared as described above. Plants, used as controls, are treated with the mixture of acetone/tween/DMSO/water not containing the active material. After 24 hours, the plants are contaminated by spraying the cotyledons with an aqueous suspension of cryopreserved Botrytis cinerea spores (50 000 spores per ml). The spores are suspended in a nutrient solution composed of 10 g/L of PDB, 50 g/L of D-Fructose, 2 g/L of NH4NO3 and 1 g/L of KH2PO4. The contaminated gherkin plants are incubated at 17° C. and at 90% relative humidity.

Another data set deals with Pyrenophora teres. Description: In vivo preventive test on Pyrenophora teres (net blotch on barley). The conditions noted are these: graded 14 days after contamination; for Eff. %: 500 ppm, barley plants sprayed 24 h before contamination; for Efficacy: 100 ppm, barley plants, comparison with prior-art compound. The procedure: Barley plants (“Plaisant” variety), sown in starter cups on a 50/50 peat soil-pozzolana substrate and grown at 22° C., are treated at the 1-leaf stage (10 cm height) by spraying with the active ingredient prepared as described above. Plants, used as controls, are treated with the mixture of acetone/tween/DMSO/water not containing the active material. After 24 hours, the plants are contaminated by spraying the leaves with an aqueous suspension of Pyrenophora teres spores (12 000 spores per ml). The spores are collected from a 12-day-old culture. […] Grading (% of efficacy) is carried out 14 days after the contamination, in comparison with the control plants.

Another data set has as its system Sphaerotheca fuliginea. Description: In vivo preventive test on Sphaerotheca fuliginea (powdery mildew on cucurbits). Particulars: 500 ppm, gherkin plants sprayed 24 h before contamination, graded 12 days after contamination. The procedure:
Gherkin plants (“Vert petit de Paris” variety), sown in starter cups on a 50/50 peat soil-pozzolana substrate and grown at 24° C., are treated at the Z11 cotyledon stage by spraying with the active ingredient prepared as described above. Plants, used as controls, are treated with the mixture of acetone/tween/DMSO/water not containing the active material. After 24 hours, the plants are contaminated by spraying the cotyledons with an aqueous suspension of Sphaerotheca fuliginea spores (100 000 spores per ml). The spores are collected from infected plants. […] Grading (% of efficacy) is carried out 12 days after the contamination, in comparison with the control plants.

Another data set concerns Phytophthora infestans. It counts as in vivo. Particulars: 500 ppm, tomato plants sprayed 24 h before contamination, graded 5 days after contamination.
The nature of data set [2]: logP by HPLC on reversed phase columns (EEC directive 79/831 Annex V.A8). It counts as physicochemical. The conditions noted are these: method [a]: LC-MS at pH 2.7, 0.1% formic acid in water / acetonitrile; compounds of formula (I), Table 1.
The test system of another data set is Phakopsora pachyrhizi. Description: In vivo Phakopsora test (soybeans)/preventive. Particulars: 10 ppm, soybean plants, preventive, evaluated 7 days after inoculation. The procedure:
To produce a suitable preparation of active compound, 1 part by weight of active compound is mixed with the stated amounts of solvent and emulsifier, and the concentrate is diluted with water to the desired concentration. To test for preventive activity, young plants are sprayed with the preparation of active compound at the stated rate of application. After the spray coating has dried on, the plants are inoculated with an aqueous spore suspension of the causal agent of soybean rust (Phakopsora pachyrhizi) and stay for 24 h without light in an incubation cabinet at approximately 24° C. and a relative atmospheric humidity of 95%. The plants remain in the incubation cabinet at approximately 24° C. and a relative atmospheric humidity of approximately 80% and a day/night interval of 12 h.

The test system of another data set is Pyricularia oryzae. It is filed as in vivo. Particulars: 500 ppm, rice plants sprayed 24 h before contamination, graded 6 days after contamination.

With `CC(C)OC1Cc2cccc(NC(=O)c3cn(C)nc3C(F)F)c2C1` (stereo not shown) [Example 2], the Eff. % with Puccinia recondita is 100%; with Septoria tritici, 90%; with Uromyces appendiculatus, 100%; in [1], 75%.
Turning to `CC(C)C1Cc2cccc(NC(=O)c3cn(C)nc3C(F)F)c2C1` (stereo not shown) [Example 3], the Eff. % with Alternaria brassicae came out at 92%; in the data set with Botrytis cinerea, 85%; with Pyrenophora teres, 97%; in the data set on Puccinia recondita, 94%; in the data set on Septoria tritici, 96%; with Sphaerotheca fuliginea, 100%. For the same compound, the Eff. % in the data set with Uromyces appendiculatus came out at 100%.
As to `CC1c2cccc(NC(=O)c3cn(C)nc3C(F)F)c2CC1(C)C` (stereo not shown) [Example 5], the Eff. % in the data set with Alternaria brassicae worked out at 71%; in the data set with Botrytis cinerea it was 88%; with Phytophthora infestans, 89%; in the data set on Puccinia recondita, 100%; in the data set on Septoria tritici, 91%; in the data set on Sphaerotheca fuliginea, 98%.
As to `CC1Cc2c(NC(=O)c3cn(C)nc3C(F)F)cccc2C1(C)C` (stereo not shown) [Example 6], the logP in data set [2] is 3.55[a]. Besides, the Eff. % in the data set with Botrytis cinerea turned out to be 95%; in the data set with Puccinia recondita it was 100%; in the data set on Septoria tritici it was 95%; with Sphaerotheca fuliginea, 100%; in the data set on Uromyces appendiculatus, 98%; in the data set with Phakopsora pachyrhizi it was 96%.
On to `Cc1nn(C)c(F)c1C(=O)Nc1cccc2c1CC(C)C2(C)C` (stereo not shown) [Example 8], for which the logP in [2] was 3.52[a]. Moreover, the Eff. % in the data set on Alternaria brassicae was determined as 79%; with Pyricularia oryzae, 83%; in the data set with Puccinia recondita, 100%; with Uromyces appendiculatus it was 100%. In the data set with Pyrenophora teres, the Efficacy is on record as 83%.
On to `CC1c2c(NC(=O)c3cn(C)nc3C(F)F)cccc2C(C)(C)C1C` (stereo not shown) [Example 9], for which the Eff. % with Alternaria brassicae was found to be 94%; with Botrytis cinerea, 100%; in the data set with Pyrenophora teres it was 97%; in the data set on Puccinia recondita, 100%; with Septoria tritici, 90%; in the data set on Sphaerotheca fuliginea, 100%. For the same compound, the results for the Eff. % in the data set on Uromyces appendiculatus and in the data set with Phakopsora pachyrhizi were 100% and 84%, respectively.
Consider `Cc1nn(C)c(C)c1C(=O)Nc1cccc2c1CC(C)(C)C2C` (stereo not shown) [Example 13], for which, in data set [2], the logP was 3.13[a]. For the same compound, the Eff. % in the data set with Alternaria brassicae was 93%; in the data set on Pyrenophora teres, 75%; in the data set with Pyricularia oryzae, 83%; with Puccinia recondita, 100%; with Uromyces appendiculatus, 100%.
Regarding `Cc1nn(C)c(C)c1C(=O)Nc1cccc2c1C(C)C(C)C2(C)C` (stereo not shown) [Example 16], in data set [2], the logP was 3.15[a]. Also, the Eff. % with Botrytis cinerea stood at 100%; with Puccinia recondita, 98%; in the data set on Uromyces appendiculatus, 100%.
Consider `CC1Cc2c(NC(=O)c3cnn(C)c3C(F)(F)F)cccc2C1(C)C` (stereo not shown) [Example 17], for which, in data set [2], the logP is 3.73[a]. Besides, the figures for the Eff. % in the data set with Botrytis cinerea, with Puccinia recondita and with Uromyces appendiculatus were 94%, 98% and 100%, respectively.
For the compound `CC1Cc2c(NC(=S)c3cn(C)nc3C(F)F)cccc2C1(C)C` (stereo not shown) [Example 28], in data set [2], the logP is 3.85[a]. In addition, the Eff. % was found to be 93% with Pyricularia oryzae, 83% in the data set on Septoria tritici, 100% in the data set with Sphaerotheca fuliginea and 100% in the data set with Uromyces appendiculatus.
Regarding `Cc1nn(C)c(F)c1C(=O)Nc1cccc2c1C(C)C(C)C2(C)C` (stereo not shown) [Example 33], the logP in data set [2] is 3.52[a]. Further, the Eff. % was 92% in the data set with Alternaria brassicae; 100% in the data set on Botrytis cinerea; 97% in the data set with Pyrenophora teres; 98% with Puccinia recondita; 97% in the data set on Septoria tritici; 100% with Sphaerotheca fuliginea. The compound also returned an Eff. % with Uromyces appendiculatus of 100%. Also, the Efficacy entry in the data set on Pyrenophora teres was “at least 80%”.
With `CCC1Cc2c(NC(=O)c3c(C)nn(C)c3F)cccc2C1(C)C` (stereo not shown) [Example 37], the logP in [2] is 3.99[a]. The Eff. % is listed as 90% in the data set with Alternaria brassicae; 83% in the data set on Pyrenophora teres; 100% in the data set on Puccinia recondita; 71% in the data set on Septoria tritici; 100% in the data set with Sphaerotheca fuliginea; 100% with Uromyces appendiculatus.
